Results published in patent US8404708B2, “Dual NK1/NK3 receptor antagonists” (Hoffmann-La Roche Inc., priority 2004, dated 2013).

Experiments:
[1] = biological target: T1, Recombinant human NK3 (hNK3) receptor (Homo sapiens, UniProt P29371); experiment: NK3 receptor binding, [3H]SR142801 displacement, membrane preparations; details: second value of the cell pKi NK1/NK3; hNK3 receptor, [3H]SR142801
T1 construct: expressed in transfected cells
T1 sequence (P29371 1-465): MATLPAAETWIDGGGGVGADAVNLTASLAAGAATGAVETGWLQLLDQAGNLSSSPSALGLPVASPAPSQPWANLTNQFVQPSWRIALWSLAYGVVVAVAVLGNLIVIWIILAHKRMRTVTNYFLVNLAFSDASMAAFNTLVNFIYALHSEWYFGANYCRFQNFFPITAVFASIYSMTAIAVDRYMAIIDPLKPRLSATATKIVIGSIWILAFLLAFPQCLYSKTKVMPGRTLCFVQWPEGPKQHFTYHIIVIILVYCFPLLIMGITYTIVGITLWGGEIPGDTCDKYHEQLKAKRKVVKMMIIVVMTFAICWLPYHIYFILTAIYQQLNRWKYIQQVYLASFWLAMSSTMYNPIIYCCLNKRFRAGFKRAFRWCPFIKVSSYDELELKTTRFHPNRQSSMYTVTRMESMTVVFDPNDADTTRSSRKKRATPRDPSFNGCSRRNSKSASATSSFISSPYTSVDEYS
Experimental: Non specific binding was determined using 10 μM SB222200. Assay buffer consisted of Tris-HCl (50 mM, pH 7.4), BSA (0.1%), MnCl2 (4 mM) and phosphoramidon (1 μM). Membrane preparations of hNK3 receptors (approximately 2.5 μg/well in a 96 well plate) were used to initiate the incubation for 90 min at room temperature. This assay was terminated by rapid filtration under vacuum through GF/C filters, presoaked for 90 min with PEI (0.3%), with 3×0.5 ml washes of ice-cold Tris buffer (50 mM, pH 7.4) containing 0.1% BSA. The radioactivity retained on the filters was measured by scintillation counting. All assays were performed in duplicate in at least two separate experiments.

human NK1 receptor = human NK1 receptor (Homo sapiens, UniProt P25103); experiment: NK1 receptor binding, [3H]substance P displacement, CHO cell membranes; details: first value of the cell pKi NK1/NK3; human NK1 receptor, [3H]substance P
human NK1 receptor, sequence (P25103 whole entry): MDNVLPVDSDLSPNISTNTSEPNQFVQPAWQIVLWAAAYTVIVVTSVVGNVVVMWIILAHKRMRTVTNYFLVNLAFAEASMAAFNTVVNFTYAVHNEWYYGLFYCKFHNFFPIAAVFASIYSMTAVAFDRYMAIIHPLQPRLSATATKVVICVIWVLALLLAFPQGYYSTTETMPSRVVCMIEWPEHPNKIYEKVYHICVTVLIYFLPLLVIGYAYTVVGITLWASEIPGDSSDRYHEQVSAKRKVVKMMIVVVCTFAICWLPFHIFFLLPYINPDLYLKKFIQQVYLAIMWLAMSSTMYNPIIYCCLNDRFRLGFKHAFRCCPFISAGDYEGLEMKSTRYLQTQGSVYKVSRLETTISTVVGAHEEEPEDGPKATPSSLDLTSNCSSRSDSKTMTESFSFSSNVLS

Ki [1]	Ki (human NK1 receptor)	SMILES
3.02 nM	1.29 nM	Cc1ccccc1-c1cc(N2C[C@@H](O)C[C@@H]2CO)ncc1N(C)C(=O)C(C)(C)c1cc(F)cc(C(F)(F)F)c1 (stereo in doubt) [Example 14, (2R,4S)-2-(3-Fluoro-5-trifluoromethyl-phenyl)-N-[6-(4-hydroxy-2-hydroxymethyl-pyrrolidin-1-yl)-4-o-tolyl-pyridin-3-yl]-N-methyl-isobutyramide]
8.91 nM	2.75 nM	CN(C(=O)C(C)(C)c1cc(Cl)cc(Cl)c1)c1cnc(NCCO)cc1-c1ccccc1Cl [Example 1, N-[4-(2-Chloro-phenyl)-6-(2-hydroxy-ethylamino)-pyridin-3-yl]-2-(3,5-dichloro-phenyl)-N-methyl-isobutyramide]
0.891 nM	3.39 nM	CN(C(=O)C(C)(C)c1cc(Cl)cc(Cl)c1)c1cnc(N2CCC[C@H]2CO)cc1-c1ccccc1Cl [Example 2, (S)-N-[4-(2-Chloro-phenyl)-6-(2-hydroxymethyl-pyrrolidin-1-yl)-pyridin-3-yl]-2-(3,5-dichloro-phenyl)-N-methyl-isobutyramide]
0.871 nM	1.41 nM	CN(C(=O)C(C)(C)c1cc(Cl)cc(Cl)c1)c1cnc(N2C[C@H](O)C[C@H]2CO)cc1-c1ccccc1Cl [Example 3, (2S,4R)-N-[4-(2-Chloro-phenyl)-6-(4-hydroxy-2-hydroxymethyl-pyrrolidin-1-yl)-pyridin-3-yl]-2-(3,5-dichloro-phenyl)-N-methyl-isobutyramide]
1.55 nM	4.47 nM	CN(C(=O)C(C)(C)c1cc(F)cc(C(F)(F)F)c1)c1cnc(N2CCC[C@H]2CO)cc1-c1ccccc1Cl [Example 4, (S)-N-[4-(2-Chloro-phenyl)-6-(2-hydroxymethyl-pyrrolidin-1-yl)-pyridin-3-yl]-2-(3-fluoro-5-trifluoromethyl-phenyl)-N-methyl-isobutyramide]
1.74 nM	1.55 nM	CN(C(=O)C(C)(C)c1cc(F)cc(C(F)(F)F)c1)c1cnc(N2C[C@H](O)C[C@H]2CO)cc1-c1ccccc1Cl [Example 5, (2S,4R)-N-[4-(2-Chloro-phenyl)-6-(4-hydroxy-2-hydroxymethyl-pyrrolidin-1-yl)-pyridin-3-yl]-2-(3-fluoro-5-trifluoromethyl-phenyl)-N-methyl-isobutyramide]
4.9 nM	7.24 nM	CN(C(=O)C(C)(C)c1cc(F)cc(F)c1)c1cnc(N2C[C@H](O)C[C@H]2CO)cc1-c1ccccc1Cl [Example 6, (2S,4R)-N-[4-(2-Chloro-phenyl)-6-(4-hydroxy-2-hydroxymethyl-pyrrolidin-1-yl)-pyridin-3-yl]-2-(3,5-difluoro-phenyl)-N-methyl-isobutyramide]
1.78 nM	4.79 nM	COc1cc(Cl)cc(C(C)(C)C(=O)N(C)c2cnc(N3CCC[C@H]3CO)cc2-c2ccccc2Cl)c1 [Example 7, (S)-2-(3-Chloro-5-methoxy-phenyl)-N-[4-(2-chloro-phenyl)-6-(2-hydroxymethyl-pyrrolidin-1-yl)-pyridin-3-yl]-N-methyl-isobutyramide]
1.26 nM	1.7 nM	COc1cc(Cl)cc(C(C)(C)C(=O)N(C)c2cnc(N3C[C@H](O)C[C@H]3CO)cc2-c2ccccc2Cl)c1 [Example 8, (2S,4R)-2-(3-Chloro-5-methoxy-phenyl)-N-[4-(2-chloro-phenyl)-6-(4-hydroxy-2-hydroxymethyl-pyrrolidin-1-yl)-pyridin-3-yl]-N-methyl-isobutyramide]
3.63 nM	6.46 nM	Cc1cc(C)cc(C(C)(C)C(=O)N(C)c2cnc(N3CCC[C@H]3CO)cc2-c2ccccc2Cl)c1 [Example 9, (S)-N-[4-(2-Chloro-phenyl)-6-(2-hydroxymethyl-pyrrolidin-1-yl)-pyridin-3-yl]-2-(3,5-dimethyl-phenyl)-N-methyl-isobutyramide]
3.63 nM	2.14 nM	Cc1cc(C)cc(C(C)(C)C(=O)N(C)c2cnc(N3C[C@H](O)C[C@H]3CO)cc2-c2ccccc2Cl)c1 [Example 10, (2S,4R)-N-[4-(2-Chloro-phenyl)-6-(4-hydroxy-2-hydroxymethyl-pyrrolidin-1-yl)-pyridin-3-yl]-2-(3,5-dimethyl-phenyl)-N-methyl-isobutyramide]
1.1 nM	1.78 nM	Cc1ccccc1-c1cc(N2CCC[C@H]2CO)ncc1N(C)C(=O)C(C)(C)c1cc(Cl)cc(Cl)c1 [Example 11, (S)-2-(3,5-Dichloro-phenyl)-N-[6-(2-hydroxymethyl-pyrrolidin-1-yl)-4-o-tolyl-pyridin-3-yl]-N-methyl-isobutyramide]
1.38 nM	1.12 nM	Cc1ccccc1-c1cc(N2C[C@H](O)C[C@H]2CO)ncc1N(C)C(=O)C(C)(C)c1cc(Cl)cc(Cl)c1 [Example 12, (2S,4R)-2-(3,5-Dichloro-phenyl)-N-[6-(4-hydroxy-2-hydroxymethyl-pyrrolidin-1-yl)-4-o-tolyl-pyridin-3-yl]-N-methyl-isobutyramide]
1.55 nM	2.19 nM	Cc1ccccc1-c1cc(N2CCC[C@H]2CO)ncc1N(C)C(=O)C(C)(C)c1cc(F)cc(C(F)(F)F)c1 [Example 13, (S)-2-(3-Fluoro-5-trifluoromethyl-phenyl)-N-[6-(2-hydroxymethyl-pyrrolidin-1-yl)-4-o-tolyl-pyridin-3-yl]-N-methyl-isobutyramide]
4.47 nM	6.31 nM	Cc1ccccc1-c1cc(N2CCC[C@H]2CO)ncc1N(C)C(=O)C(C)(C)c1cc(F)cc(F)c1 [Example 15, (S)-2-(3,5-Difluoro-phenyl)-N-[6-(2-hydroxymethyl-pyrrolidin-1-yl)-4-o-tolyl-pyridin-3-yl]-N-methyl-isobutyramide]
4.07 nM	2.63 nM	Cc1ccccc1-c1cc(N2C[C@H](O)C[C@H]2CO)ncc1N(C)C(=O)C(C)(C)c1cc(F)cc(F)c1 [Example 16, (2S,4R)-2-(3,5-Difluoro-phenyl)-N-[6-(4-hydroxy-2-hydroxymethyl-pyrrolidin-1-yl)-4-o-tolyl-pyridin-3-yl]-N-methyl-isobutyramide]
3.16 nM	3.89 nM	COc1cc(Cl)cc(C(C)(C)C(=O)N(C)c2cnc(N3CCC[C@H]3CO)cc2-c2ccccc2C)c1 [Example 17, (S)-2-(3-Chloro-5-methoxy-phenyl)-N-[6-(2-hydroxymethyl-pyrrolidin-1-yl)-4-o-tolyl-pyridin-3-yl]-N-methyl-isobutyramide]
2.51 nM	1.17 nM	COc1cc(Cl)cc(C(C)(C)C(=O)N(C)c2cnc(N3C[C@H](O)C[C@H]3CO)cc2-c2ccccc2C)c1 [Example 18, (2S,4R)-2-(3-Chloro-5-methoxy-phenyl)-N-[6-(4-hydroxy-2-hydroxymethyl-pyrrolidin-1-yl)-4-o-tolyl-pyridin-3-yl]-N-methyl-isobutyramide]
5.13 nM	2.95 nM	Cc1cc(C)cc(C(C)(C)C(=O)N(C)c2cnc(N3CCC[C@H]3CO)cc2-c2ccccc2C)c1 [Example 19, (S)-2-(3,5-Dimethyl-phenyl)-N-[6-(2-hydroxymethyl-pyrrolidin-1-yl)-4-o-tolyl-pyridin-3-yl]-N-methyl-isobutyramide]
6.17 nM	1.15 nM	Cc1cc(C)cc(C(C)(C)C(=O)N(C)c2cnc(N3C[C@H](O)C[C@H]3CO)cc2-c2ccccc2C)c1 [Example 20, (2S,4R)-2-(3,5-Dimethyl-phenyl)-N-[6-(4-hydroxy-2-hydroxymethyl-pyrrolidin-1-yl)-4-o-tolyl-pyridin-3-yl]-N-methyl-isobutyramide]
